Measurements reported in patent US6359138B1, “4-hydroxy-piperidine derivatives” (Hoffmann-La Roche Inc., priority 1996, dated 2002).
pIC50: −log10 of the molar value. Structures can show the parent of a compound that is named as a salt. Marks after values point to notes of the source that are not given here.

Experiments:
[1] = molecular target: T1, NMDA receptor (3H-Ro 25-6981 binding, rat brain membranes) (Rattus norvegicus, UniProt P35439+Q00960); experiment: 3H-Ro 25-6981 binding; conditions: 5 nM 3H-Ro 25-6981, 2 hours at 4° C.
T1 construct: Membranes were prepared by homogenization of the whole brain minus cerebellum and medulla oblongata; from tissue; host or cells: rat whole brain minus cerebellum and medulla oblongata, membranes
Method: 3H-Ro 25-6981 Binding (Ro 25-6981 is [R-(R*,S*)]-a-(4-Hydroxy-phenyl)-b-methyl-4-(phenyl-methyl)-1-piperidine Propanol)
Male Füillinsdorf albino rats weighing between 150-200 g were used. Membranes were prepared by homogenization of the whole brain minus cerebellum and medulla oblongata with a Polytron (10.000 rpm, 30 seconds), in 25 volumes of a cold Tris-HCl 50 mM, EDTA 10 mM, pH 7.1 buffer. The homogenate was centrifuged at 48.000 g for 10 minutes at 4° C. The pellet was resuspended using the Polytron in the same volume of buffer and the homogenate was incubated at 37° C. for 10 minutes. After centrifugation the pellet was homogenized in the same buffer and frozen at −80° C. for at least 16 hours but not more than 10 days. For the binding assay the homogenate was thawed at 37° C., centrifuged and the pellet was washed three times as above in a Tris-HCl 5 mM, pH 7.4 cold buffer. The final pellet was resuspended in the same buffer and used at a final concentration of 200 μg of protein/ml. 3H-Ro 25-6981 binding experiments were performed using a Tris-HCl 50 mM, pH 7.4 buffer. For displacement experiments 5 nM of 3H-Ro 25-6981 were used and non specific binding was measured using 10 μM of tetrahydroisoquinoline and usually it accounts for 10% of the total. The incubation time was 2 hours at 4° C. and the assay was stopped by filtration on Whatmann GF/B glass fiber filters (Unifilter-96, Packard, Zütrich, Switzerland). The filters were washed 5 times with cold buffer. The radioactivity on the filter was counted on a Packard Top-count microplate scintillation counter after addition of […] of microscint 40 (Canberra Packard S. A., Zürich, Switzerland).
The effects of compounds were measured using a minimum of 8 concentrations and repeated at least once. The pooled normalized values were analyzed using a non-linear regression calculation program which provide IC50 with their relative upper and lower 95% confidence limits (RS1, BBN, USA).

[2] = molecular target: 3H-Prazosine binding (rat brain membranes); experiment: 3H-Prazosine binding; conditions: 0.2 nM 3H-Prazosine, 30 minutes at room temperature
Method: Male Füllinsdorf albino rats weighing between 150-200 g were used. Membranes were prepared by homogenization of the whole brain minus cerebellum and medulla oblongata with a Plytron (10.000 rpm, 30 seconds), in 25 volumes of a cold Tris-HCl 50 mM, EDTA 10 mM, pH 7.1 buffer. The homogenate was centrifuged at 48.000 g for 10 minutes at 4° C. The pellet was resuspended using the Polytron in the same volume of buffer and the homogenate was incubated at 37° C. for 10 minutes. After centrifugation the pellet was homogenized in the same buffer and frozen at −80° C. for at least 16 hours but not more than 10 days. For the binding assay the homogenate was thawed at 37° C., centrifuged and the pellet was washed three times as above in a Tris-HCl 5 mM, pH 7.4 cold buffer. The final pellet was resuspended in the same buffer and used at a final concentration of 200 μg of protein/ml.
3H-Prazosine binding experiments were performed using a Tris-HCl 50 mM, pH 7.4 buffer. For displacement experiments 0.2 nM of 3H-Prazosine were used and non specific binding was measured using 100 μM of Chlorpromazine. […] The radioactivity on the filter was counted on a Packard Top-count microplate scintillation counter after addition of […] of microscint 40 (Canberra Packard S. A., Zürich, Switzerland). The effects of compounds were measured using a minimum of 8 concentrations and repeated at least once. […]

[3] = molecular target: T2, NR1C + NR2A NMDA receptor (Rattus norvegicus, UniProt P35439+Q00959); experiment: Electrophysiology on recombinant NMDA receptors, NR1C + NR2A in Xenopus oocytes; format: cell-based; conditions: 10 μM compound; Xenopus laevis oocytes, voltage clamp −80 mV, 2.7 μM Glu plus 0.9 μM Gly; mean of 4-6 oocytes
T2 construct: expressed in transfected cells; host or cells: Xenopus laevis oocytes (nuclear injection of pBC/CMV plasmids)
Excerpt: (§1) Electrophysiology on Recombinant NMDA Receptors
(§2) cDNA clones coding for the subunits NR1C and NR2A of the NMDA receptor (see Hollmann and Heinemann, 1994, Annu. Rev. Neurosci. 17:31 for nomenclature of NMDA receptor subunits) were isolated from a rat brain λgt11 cDNA library as published elsewhere (Sigel et al., 1994, J. Biol. Chem. 269:8204). The clone for the subunit NR2B of the rat brain NMDA receptor was obtained from S. Nakanishi (Kyoto, Japan). The cDNAs encoding rat NR1C, NR2A and NR2B were subcloned into the expression vector pBC/CMV (Bertocci et al., 1991, Proc. Natl. Acad. Sci. U.S.A. 88:1416), placing transcription of the cDNA under control of the human cytomegalovirus promoter. CsCl-purified expression plasmids were mixed in a 1:3 ratio of NR1C:NR2A or NR1C:NR2B in injection buffer (88 mM NaCl, 1 mM KCl, 15 mM HEPES, at pH 7.0). Oocytes of South African frogs (Xenopus laevis) were used for expressing either a combination of the NR1C and NR2A subunits or the NR1C and NR2B subunits. 12 to 120 pg of a 1:3 (NR1C:NR2B) mixture of the respective cDNA species were injected into the nucleus of every oocyte. On the following two days the ion current through the NMDA receptor channels was measured in voltage clamp experiments for the methods of cDNA expression in oocytes and voltage-clamping (see, e.g., Bertrand et al., 1991, Methods in Neurosciences 4:174). The membrane potential was clamped to −80 mV and the receptors were activated by applying a modified Ringer,s solution containing the NMDA-receptor agonists L-glutamate (Glu) and glycine (Gly). Different agonist concentrations were chosen for either subunit combination to account for the different agonist sensitivities of the two types of receptors (2.7 μM Glu plus 0.9 μM Gly for NR1C+NR2A and 1.3 μM Glu plus 0.07 μM Gly for NR1C+NR2B). The agonists were applied for 15 s intervals once every 2.5 min by rapid superfusion of the oocyte with agonist containing solution and the amplitude of the agonist-evoked current was measured immediately before the end of each application. After a series of initial control applications the antagonist to be tested was added to both, the basal Ringer,s and the agonist containing solution. The antagonist concentration applied to oocytes expressing the NR2A subunit was 10 μmol/l, whereas 0.1 μtmol/ were applied to the NR2B expressing oocytes. Four to six oocytes were tested for every compound and NMDA receptor subtype. Oocytes were exposed to the compounds for 5 to 30 min depending on the time needed for reaching an equilibrium block of the NMDA receptor current. For every oocyte the decrease of the current amplitude was expressed as a percentage of the control current measured before application of the compound. Figures in the table are arithmetic mean values of these percentage values.

[4] = molecular target: T3, NR1C + NR2B NMDA receptor (Rattus norvegicus, UniProt P35439+Q00960); experiment: Electrophysiology on recombinant NMDA receptors, NR1C + NR2B in Xenopus oocytes; format: cell-based; conditions: 0.1 μM compound; Xenopus laevis oocytes, voltage clamp −80 mV, 1.3 μM Glu plus 0.07 μM Gly; mean of 4-6 oocytes
T3 construct: expressed in transfected cells; host or cells: Xenopus laevis oocytes (nuclear injection of pBC/CMV plasmids)
Excerpt: as §1
as §2, with “Figures in the table are arithmetic mean values of these percentage values.” left out

T2 sequence (Q00959 23-1464, other chains not shown): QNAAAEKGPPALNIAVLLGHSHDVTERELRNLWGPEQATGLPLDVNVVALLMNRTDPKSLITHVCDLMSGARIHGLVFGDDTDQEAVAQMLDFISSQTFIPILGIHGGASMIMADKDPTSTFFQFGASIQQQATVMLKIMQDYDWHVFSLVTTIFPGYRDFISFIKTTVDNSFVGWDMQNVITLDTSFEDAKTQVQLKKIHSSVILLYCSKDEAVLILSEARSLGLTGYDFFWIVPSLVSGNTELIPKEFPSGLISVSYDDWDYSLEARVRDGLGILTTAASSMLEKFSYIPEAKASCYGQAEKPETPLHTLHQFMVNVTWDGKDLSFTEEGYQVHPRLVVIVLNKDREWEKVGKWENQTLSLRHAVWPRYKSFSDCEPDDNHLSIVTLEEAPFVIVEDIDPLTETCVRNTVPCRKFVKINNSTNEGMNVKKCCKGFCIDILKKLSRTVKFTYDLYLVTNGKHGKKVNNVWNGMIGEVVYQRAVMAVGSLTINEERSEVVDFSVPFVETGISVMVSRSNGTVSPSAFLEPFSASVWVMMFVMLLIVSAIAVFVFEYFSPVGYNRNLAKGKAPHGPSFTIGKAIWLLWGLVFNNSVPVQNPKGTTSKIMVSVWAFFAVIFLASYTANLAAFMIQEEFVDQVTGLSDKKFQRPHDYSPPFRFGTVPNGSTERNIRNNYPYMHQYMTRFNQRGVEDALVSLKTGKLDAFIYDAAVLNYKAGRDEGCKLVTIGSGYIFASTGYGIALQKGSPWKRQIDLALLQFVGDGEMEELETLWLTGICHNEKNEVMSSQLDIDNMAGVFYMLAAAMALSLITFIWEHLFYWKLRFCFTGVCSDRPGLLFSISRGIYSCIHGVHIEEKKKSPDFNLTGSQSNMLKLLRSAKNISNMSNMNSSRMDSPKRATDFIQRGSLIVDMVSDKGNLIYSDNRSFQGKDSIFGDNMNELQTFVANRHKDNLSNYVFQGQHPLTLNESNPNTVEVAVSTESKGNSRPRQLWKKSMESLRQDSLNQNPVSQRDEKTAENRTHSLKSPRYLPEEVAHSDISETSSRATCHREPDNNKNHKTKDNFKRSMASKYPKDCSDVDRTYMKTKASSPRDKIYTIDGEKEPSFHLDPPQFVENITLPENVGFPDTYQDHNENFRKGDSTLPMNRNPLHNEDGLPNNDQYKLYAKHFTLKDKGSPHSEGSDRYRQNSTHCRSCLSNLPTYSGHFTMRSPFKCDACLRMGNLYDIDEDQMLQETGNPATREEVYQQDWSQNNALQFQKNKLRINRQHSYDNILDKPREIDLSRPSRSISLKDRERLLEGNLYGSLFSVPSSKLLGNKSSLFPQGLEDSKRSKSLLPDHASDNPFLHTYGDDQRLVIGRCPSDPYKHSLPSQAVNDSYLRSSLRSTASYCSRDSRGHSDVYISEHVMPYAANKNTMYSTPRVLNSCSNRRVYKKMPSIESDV
T3 sequence (Q00960 27-1482, other chains not shown): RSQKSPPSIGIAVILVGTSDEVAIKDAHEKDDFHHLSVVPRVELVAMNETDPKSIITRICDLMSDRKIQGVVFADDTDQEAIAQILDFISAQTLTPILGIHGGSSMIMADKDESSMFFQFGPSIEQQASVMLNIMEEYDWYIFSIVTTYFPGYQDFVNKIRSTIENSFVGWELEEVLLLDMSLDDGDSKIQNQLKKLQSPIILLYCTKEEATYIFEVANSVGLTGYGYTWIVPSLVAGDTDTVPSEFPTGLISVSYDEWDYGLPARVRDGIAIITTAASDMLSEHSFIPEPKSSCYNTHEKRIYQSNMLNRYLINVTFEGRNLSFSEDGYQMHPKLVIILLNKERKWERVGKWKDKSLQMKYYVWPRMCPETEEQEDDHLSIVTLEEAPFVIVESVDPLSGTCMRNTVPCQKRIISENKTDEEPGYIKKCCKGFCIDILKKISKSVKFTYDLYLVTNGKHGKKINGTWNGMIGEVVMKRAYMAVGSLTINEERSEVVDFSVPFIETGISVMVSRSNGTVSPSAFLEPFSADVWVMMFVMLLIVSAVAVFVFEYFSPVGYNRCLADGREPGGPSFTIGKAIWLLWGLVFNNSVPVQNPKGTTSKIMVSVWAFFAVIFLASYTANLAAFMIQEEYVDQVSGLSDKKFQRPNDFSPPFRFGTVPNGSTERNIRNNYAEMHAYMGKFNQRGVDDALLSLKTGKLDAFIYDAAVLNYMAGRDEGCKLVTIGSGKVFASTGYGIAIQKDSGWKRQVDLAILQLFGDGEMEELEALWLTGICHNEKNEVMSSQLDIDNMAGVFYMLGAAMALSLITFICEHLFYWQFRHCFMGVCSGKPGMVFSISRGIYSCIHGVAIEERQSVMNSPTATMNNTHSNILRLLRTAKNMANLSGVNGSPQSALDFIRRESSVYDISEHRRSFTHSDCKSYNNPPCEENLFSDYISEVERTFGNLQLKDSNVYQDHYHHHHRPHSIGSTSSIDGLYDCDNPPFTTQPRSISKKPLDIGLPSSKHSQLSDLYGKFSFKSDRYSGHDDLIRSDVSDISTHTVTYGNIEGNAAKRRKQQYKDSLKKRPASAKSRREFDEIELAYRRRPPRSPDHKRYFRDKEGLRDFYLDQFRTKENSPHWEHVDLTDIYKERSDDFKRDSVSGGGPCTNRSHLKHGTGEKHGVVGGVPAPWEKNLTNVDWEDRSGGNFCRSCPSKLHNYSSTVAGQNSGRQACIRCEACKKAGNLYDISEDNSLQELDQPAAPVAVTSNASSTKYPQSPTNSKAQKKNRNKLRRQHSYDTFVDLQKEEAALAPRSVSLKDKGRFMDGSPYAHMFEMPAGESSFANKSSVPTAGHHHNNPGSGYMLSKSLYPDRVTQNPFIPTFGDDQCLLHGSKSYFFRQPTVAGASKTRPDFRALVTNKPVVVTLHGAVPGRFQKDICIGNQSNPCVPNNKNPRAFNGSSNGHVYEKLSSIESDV
T1 sequence (Q00960 27-1482, other chains not shown): as above

| SMILES | melting point [°C] | Electrophysiology NR1C + NR2A % block by 10 μM [3] | further results |
| --- | --- | --- | --- |
| Cc1ccc(CC2(O)CCN(C[C@H]3CCc4cc(O)ccc4[C@@H]3O)CC2)cc1 (racemic) [Example 27, (1RS, 2RS)-1-(1,6-Dihydroxy-1,2,3,4-tetrahydro-naphthalen-2-ylmethyl)-4-(4-methyl-benzyl)-piperidin-4-ol fumarate salt] | – | – | pIC50 [1]: 7.59; pIC50 [2]: 5.22 |
| CS(=O)(=O)Nc1ccc2c(c1)CC(CN1CCC(O)(Cc3ccc(Cl)cc3)CC1)O2 (racemic) [Example 22, Hydrochloride] | – | – | pIC50 [1]: 7.40 |
| Cc1ccc(CC2(O)CCN(CC3=Cc4ccc(O)cc4C3)CC2)cc1 [Example 20, 1-(6-Hydroxy-1H-inden-2-ylmethyl)-4-(4-methyl-benzyl)-piperidin-4-ol] | 154 to 157 | – | – |
| Oc1ccc2c(c1)CC[C@H](CN1CCC(O)(Cc3ccccc3)CC1)[C@H]2O (racemic) [Example 29, (1RS,2RS)-2-(4-benzyl-4-hydroxy-piperidin-1-yl-methyl)-6-hydroxy-1,2,3,4-tetrahydro-naphthalen-1-ol] | 94 to 98 | – | – |
| Cc1ccc(CC2(O)CCN(CC3Cc4cc(O)ccc4N3)CC2)cc1 (racemic) [Example 21, (RS)-2-[4-Hydroxy-4-(4-methyl-benzyl)-piperidin-1-ylmethyl]-2,3-dihydro-1H-indol-5-ol] | 90 to 94 | – | – |
| Cc1ccc(CC2(O)CCN(CC3Cc4cc(O)ccc4C3O)CC2)cc1 (stereo not drawn) [Example 16, (1RS,2RS) and (1RS, 2SR)-2-[4-Hydroxy-4-(4-methyl-benzyl)-piperidine-1-ylmethyl]-indan-1,5-diol Fumarate Salt] | – | 6% | – |
| Cc1ccc(CC2(O)CCN(C[C@@H]3Cc4cc(O)ccc4O3)CC2)cc1.Cl [Example 13, (S)-1-(5-Hydroxy-2,3-dihydro-benzofuran-2-ylmethyl)-4-(4-methyl-benzyl)-piperidin-4-ol hydrochloride] | – | 8% | Electrophysiology NR1C + NR2B % block by 0.1 μM [4]: 93% |
| Cc1ccc(CC2(O)CCN(CC3Cc4ccc(O)cc4O3)CC2)cc1.Cl (racemic) | 203 to 205 | – | – |
| Cc1ccc(CC2(O)CCN(CC3Cc4ccc(O)cc4C3)CC2)cc1.Cl (racemic) | 88 to 90 | – | – |
| CC(=O)Nc1ccc2c(c1)CCC(CN1CCC(O)(Cc3ccccc3)CC1)C2=O.Cl (racemic) | 123 to 126 | – | – |
| CCc1ccc(CC2(O)CCN(CC3Cc4cc(O)ccc4O3)CC2)cc1.Cl (racemic) [Example 7, (RS)-4-(4-ethyl-benzyl)-1-(5-hydroxy-2,3-dihydro-benzofuran-2-ylmethyl)-piperidin-4-ol hydrochloride] | – | 12% | Electrophysiology NR1C + NR2B % block by 0.1 μM [4]: 89% |
| Cl.Oc1ccc2c(c1)C[C@@H](CN1CCC(O)(Cc3ccc(Cl)cc3)CC1)O2 [Example 14, (S)-1-(5-Hydroxy-2,3-dihydro-benzofuran-2-ylmethyl)-4-(4-chloro-benzyl)-piperidin-4-ol hydrochloride] | – | 9% | Electrophysiology NR1C + NR2B % block by 0.1 μM [4]: 90% |
| Cc1ccc(CC2(O)CCN(Cc3cc4ccc(O)cc4o3)CC2)cc1.Cl | 214 | – | – |
| Cc1ccc(CC2(O)CCN(CC3=Cc4ccc(O)cc4CC3)CC2)cc1 [Example 1, 1-(6-Hydroxy-3,4-dihydro-naphthalene-2-ylmethyl)-4-(4-methyl-benzyl)-piperidine-4-ol] | – | 65* % | pIC50 [1]: 7.40; Electrophysiology NR1C + NR2B % block by 0.1 μM [4]: 72% |
